Data taken from paper PMC6272662, “Trypanocidal Activity of Long Chain Diamines and Aminoalcohols” (Molecules, 2015).
Read-outs that look alike come from different tables or passages of the source.

Tests used:
Chagas disease = system: Chagas disease; design: method as in PMID 22614520, PMID 22760123, PMID 22686518, PMID 19967227; conditions: ref [6],[7],[8],[9], cited from earlier work
in vitro = conditions: mouse
Protocol: (§1) The mouse cell lines J774.2 macrophages and NCTC clone 929 fibroblasts were used and cultured in plastic culture flasks. J774.2 and NCTC-929 cells were grown using DMEM and BME without phenol-red, respectively. Both media were supplemented with 10% heat inactivated fetal calf serum, 2 mM glutamine, 100 U/mL penicillin and 100 μg/mL streptomycin. Cell cultures were maintained at 37 °C in a humidified atmosphere containing 5% CO2 and subpassaged once a week. Cells in the pre-confluence phase were harvested with an EDTA-trypsin solution for the experiments.
(§2) Unspecific cytotoxicity was evaluated over phagocytic macrophages J774.2 cell line. To study cytotoxicity on J774.2 cells, 200 μL of a suspension of 2 × 10^5 macrophages/mL were added to 96 well flat-bottom microplates (Sigma). Cells were allowed to attach for 24 h at 37 °C and then exposed to the compounds for 72 h at the same concentrations as used for drug screening. […] Each concentration was assayed by triplicate, in independent experiments. Cytotoxicity was assessed by the Trypan Blue and XTT techniques and LC50 was calculated as described above.

[1] = system: Trypanosoma cruzi epimastigotes strain JEM (MHOM/CO/05/JEM); test: Epimastigote susceptibility assay, JEM strain (Trypan Blue and XTT); type: cell-based; conditions: for JEM Strain SI (Selectivity Index: LC50-macrophages/IC50-epimastigotes): JEM strain epimastigotes vs J774.2 macrophages; for IC50 / JEM Strain PNFX (potency relative to NFX = IC50-NFX/IC50-compound; also called NI): epimastigotes, JEM strain; for IC50: 72 h at 28 °C, 0.1-70.0 µM, mean ± SEM
Protocol: (§3) For in vitro studies, the strains MHOM/CO/04/MG (MG), MHOM/CO/05/JEM (JEM) and CL Brener strain clone B5 (CL-B5) were used. The MG and JEM strains correspond to Group I and Haplotype Ia isolates from two Colombian patients in the acute phase, and CL-B5 is a strain stably transfected with Escherichia coli β-galactosidase gene (lacZ). Epimastigotes were grown in plastic culture flasks at 28 °C, in axenic liver-infusion tryptose (LIT) growth medium, supplemented with 10% heat inactivated (30 min at 56 °C) foetal calf serum (FCS; Sigma), […] hemin (Sigma), and 10 µg/mL gentamycin (Sigma) and harvested in the exponential phase for conducting the experiments. Cultures were continuously maintained in logarithmic growth by weekly passages.
(§4) Three different strains of T. cruzi were used for the primary screening on epimastigote forms. For strains MG and JEM, the screening assay was performed with approximately 1 × 10^5 epimastigotes in logaritmic growth phase in 200 μL of supplemented LIT medium per well in 96-well flat bottoned plates (Costar, Corning, Cornig, NY, USA). […] The plates were incubated for 72 h at 28 °C and all experimental conditions were evaluated in triplicate in three independent experiments. The epimastigote growth inhibition was microscopically determined by the Trypan Blue dye exclusion assay and XTT (2,3-bis-(2-methoxy-4-nitro-5-sulfophenyl)-5-[(phenylamino)carbonyl]-2H-tetrazolium hydroxide). Regarding the first method, an aliquot from every culture was suspended in 0.4% trypan blue solution for 5 min and cell viability was determined under microscope by counting live parasites in each condition in a Neubauer chamber. Anti-epimastigote activity percentage was calculated as (Parasite counts in control wells-Parasite counts in experimental wells) × 100/Parasite counts in control wells. Trypanocidal activity over both strains was also measured adding 50 μL of XTT solution per well to obtain a final concentration of 0.3 mg/mL. The plate was re-incubated 24 h in the dark at 37 °C and orange formazan solution formed, was spectrophotometrically quantified at 450 nm with a 630 nm reference filter, using an Ear400FT ELISA reader.
(§5) Furthermore the Selectivity Index (SI = mammalian cell LC50/epimastigote IC50) for each compound was calculated to compare the antiprotozoal activity with its respective mammalian cell cytotoxicity.

[2] = system: Trypanosoma cruzi epimastigotes strain MG (MHOM/CO/04/MG); test: Epimastigote susceptibility assay, MG strain (Trypan Blue and XTT); type: cell-based; conditions: for MG Strain SI (Selectivity Index: LC50-macrophages/IC50-epimastigotes): MG strain epimastigotes vs J774.2 macrophages; for IC50 / MG Strain PNFX (potency relative to NFX = IC50-NFX/IC50-compound; also called NI): MG strain; for IC50: 72 h at 28 °C, 0.1-70.0 µM, mean ± SEM
Protocol: as §3, §4, §5

J774.2 macrophages = test: in vitro; conditions: macrophages LC50 relative to NFX
Protocol: as §1, §2

[3] = Trypanosoma cruzi, 72 h, epimastigotes

Row | Structure (SMILES) | IC50 ([1]; Trypanosoma cruzi, 72 h) [µM] | JEM Strain PNFX (potency relative to NFX = IC50-NFX/IC50-compound; also called NI) [1] | IC50 [2, 3] [µM] | MG Strain PNFX (potency relative to NFX = IC50-NFX/IC50-compound; also called NI) ([2]; epimastigotes) | IC50 [1] [µM] | IC50 ([2]; epimastigotes) [µM] | average cure rate (Chagas disease; acute cases of Chagas disease) [%] | mild to moderate dermatitis (Chagas disease; adults) | average cure rate (Chagas disease; chronic cases of Chagas disease) | CC50 at 72 h (in vitro) [µM] | JEM Strain SI (Selectivity Index: LC50-macrophages/IC50-epimastigotes) [1] | MG Strain SI (Selectivity Index: LC50-macrophages/IC50-epimastigotes) [2] | times greater activity on the MG strain than the JEM strain ([2]; epimastigotes, MG vs JEM IC50) | times less toxic than NFX (J774.2 macrophages)
1 | O=C(Cn1ccnc1[N+](=O)[O-])NCc1ccccc1 [Bz, benznidazole] |  |  |  |  |  |  | ~80 | up to 30% | less than 20% |  |  |  |  | 
2 | CCCCCCCCCCCCCCC(CO)NCCCCCC (stereo not shown) [Compound 7] | > 70 |  | 6 | 3.5 | > 70 | 6.1 ± 0.15 |  |  |  | 8.2 ± 1.55 |  | 1.3 | 11 | 
3 | CCCCCCCCCCCCCCCCC(CO)NCCCCCC (stereo not shown) [Compound 8] | > 70 |  | > 70 |  |  |  |  |  |  | 26 ± 0.2 |  |  |  | 
4 | CCCCCCCCCCCCCCC(CO)N(CC)CC (stereo not shown) [Compound 10] | > 70 |  | > 70 |  |  |  |  |  |  | 5.6 ± 0.27 |  |  |  | 

Continued by falling IC50 ([1]; Trypanosoma cruzi, 72 h), values first:

Row | IC50 ([1]; Trypanosoma cruzi, 72 h) [µM] | JEM Strain PNFX (potency relative to NFX = IC50-NFX/IC50-compound; also called NI) [1] | IC50 [2, 3] [µM] | MG Strain PNFX (potency relative to NFX = IC50-NFX/IC50-compound; also called NI) ([2]; epimastigotes) | IC50 [1] [µM] | IC50 ([2]; epimastigotes) [µM] | Structure (SMILES) | average cure rate (Chagas disease; acute cases of Chagas disease) [%] | mild to moderate dermatitis (Chagas disease; adults) | average cure rate (Chagas disease; chronic cases of Chagas disease) | CC50 at 72 h (in vitro) [µM] | JEM Strain SI (Selectivity Index: LC50-macrophages/IC50-epimastigotes) [1] | MG Strain SI (Selectivity Index: LC50-macrophages/IC50-epimastigotes) [2] | times greater activity on the MG strain than the JEM strain ([2]; epimastigotes, MG vs JEM IC50) | times less toxic than NFX (J774.2 macrophages)
5 | 50.5 ± 0.7 | 0.3 | 39.2 ± 0.2 | 0.5 |  |  | CCCCCCCCCCC(CO)N(CCCC)CCCC (stereo not shown) [Compound 9] |  |  |  | 63.7 ± 0.73 | 1.3 | 1.6 |  | 1.3
6 | 50.3 ± 0.1 | 0.3 | > 70 |  |  |  | CCCCCCCCCCCCCCCCC(CO)N(CCCC)CCCC (stereo not shown) [Compound 11] |  |  |  |  |  |  |  | 
7 | 37.2 ± 1.25 | 0.4 | 21.1 ± 1.25 | 1.0 |  |  | CCCCCCCCCCC(CO)NCCCCCC (stereo not shown) [Compound 4] |  |  |  | 36.1 ± 2.3 | 1.0 | 1.7 |  | 
8 | 33 ± 1.7 | 0.4 | 14.5 ± 3.15 | 1.5 |  |  | CCCCCCCCCCC(N)CO (stereo not shown) [Compound 1] |  |  |  | 14 ± 0.9 | 0.4 | 1.0 |  | 
9 | 9.9 ± 1.65 | 1.5 | 46.2 ± 2.5 | 0.5 |  |  | CCCCCCCCCCCCCCCCC(N)CO (stereo not shown) [Compound 3] |  |  |  | 3 ± 0.24 | 0.3 | 0.1 |  | 
